In patent US7115590B1 (University College Cardiff Consultants Limited, priority 1999, dated 2006):
Read-outs that look alike come from different tables or passages of the source.

Tests used:
[1] = system: Hepatitis B Virus; assay: Anti-Hepatitis B Virus activity; format: cell-based
Experimental: Compounds were tested for anti-Hepatitis B Virus activity according to the method described by Jansen, R. et al., Antimicrobial Agents and Chemotherapy, Vol. 37, No. 3, pp. 441–447, 1993, and results are shown in the table below.

[2] = Acid stability, acid-mediated hydrolytic decomposition simulating stomach conditions (HPLC); format: physicochemical; conditions: dilute hydrochloric acid pH 1, 37° C., initial 0.3 mg/ml
Experimental: Compounds according to the invention were tested for their stability towards acid-mediated hydrolytic decomposition employing a test designed to simulate stomach conditions. Each compound was incubated at an initial concentration of 0.3 mg/ml in dilute hydrochloric acid at pH 1 at 37° C. HPLC was run immediately for t=0 and at intervals up to approximately 24 hours.

[3] = format: in vitro ADME; conditions: normal heparized human plasma, 37° C.
Experimental: Each compound was incubated in normal heparized human plasma at 37° C. At selected time points duplicate samples were removed and deproteinated by acetonitrile extraction. Drug concentrations were then determined by LC/MS/MS analysis using standard methods.

IC50 ([1]; Hepatitis B virus; read-out: IC50 (mM) vs. HBV) | melting point | Compound | Selectivity Index ([1]; vs. HBV) | half-life, acid stability [2] | Half-life [3] | IC50 ([1]; Hepatitis B virus, read-out: IC50 (mM) vs. HBV)
980 nM | 195 to 200 °C | Nc1ncnc2c1ncn2[C@@H]1C=C[C@H](CO)C1 (relative stereo) [Example 1, (1R,cis)-4-(6-Amino-9H-purin-9-yl)-2-cyclopentene-1-methanol] | >200 | – | – | –
– | – | CCOC(=O)[C@H](Cc1ccccc1)NP(=O)(OC[C@H]1C=C[C@@H](n2cnc3c(N)ncnc32)C1)Oc1ccccc1 (relative stereo) [Example 7] | 5000 | 76 h | 53 h | –
– | – | Nc1ncnc2c1ncn2[C@@H]1C=C[C@H](COP(=O)([O-])N[C@@H](Cc2ccccc2)C(=O)[O-])C1.[Na+].[Na+] (relative stereo) [Example 8] | >1800 | – | – | –
– | – | COC(=O)C(C)(C)NP(=O)(OC[C@H]1C=C[C@@H](n2cnc3c(N)ncnc32)C1)Oc1ccccc1 (stereo partly drawn) [Example 9] | 5000 | – | – | 2 nM
